By EC50 is commonly meant the concentration giving half of the maximal effect. The low end stands for an effect from little substance, the high end for a need for much substance. As usually defined, the IC50 is the concentration at which inhibition is half-maximal.

Bridges are numbered along the chain shown (N, C = ends). Where no end group is shown, it is not given here. [ ]: non-standard residue; d: D form. 1Nal = N[C@@H](Cc1cccc2ccccc12)C(=O)O; Sar = CNCC(=O)O

EC50 and IC50 data for one substance are collected here from patent publication US8729030B2 (Affymax, Inc., priority 2003, dated 2014).

The target of assay [1] is chimeric receptor comprising the extra-cellular portion of the human EPO receptor to the intra-cellular portion of the human GCSF receptor. The experiment in a line: Reporter assay (Baf3/EpoR/GCSFR fos/lux luciferase). In kind it is cell-based. To be noted: Table 6; Baf3/EpoR/GCSFR fos/lux cells, 4 h. The text has this: This assay is based upon a on a murine pre-B-cell line derived reporter cell, Baf3/EpoR/GCSFR fos/lux. This reporter cell line expresses a chimeric receptor comprising the extra-cellular portion of the human EPO receptor to the intra-cellular portion of the human GCSF receptor. This cell line is further transfected with a fos promoter-driven luciferase reporter gene construct. Activation of this chimeric receptor through addition of erythropoietic agent results in the expression of the luciferase reporter gene, and therefore the production of light upon addition of the luciferase substrate luciferin. Thus, the level of EPO-R activation in such cells may be quantitated via measurement of luciferase activity.
The Baf3/EpoR/GCSFR fos/lux cells are cultured in DMEM/F12 medium (Gibco) supplemented with 10% fetal bovine serum (FBS; Hyclone), 10% WEHI-3 supernatant (the supernatant from a culture of WEHI-3 cells, ATCC #TIB-68), and penicillin/streptomycin. […] Following a 5-minute incubation, light emission is measured on a Packard Topcount Luminometer (Packard Instrument Co., Downers Grove, Ill.). Light counts are plotted relative to test peptide concentration and analysed using Graph Pad software. The concentration of test peptide that results in a half-maximal emission of light is recorded as the EC50 [See Table 2: Reporter EC50]. […]
Background: In a reporter assay the amount or activity of a reporter protein is the signal.

In assay [2] the target is T1, Recombinant Human EPO R/Fc Chimera (Homo sapiens, UniProt P19235).
T1 construct: recombinant EPOr extracellular domain fused to the Fc portion of human IgG1; purchased R&D Systems (Minneapolis, MN, US) 963-ER
T1 sequence (P19235 25-250 limits assumed): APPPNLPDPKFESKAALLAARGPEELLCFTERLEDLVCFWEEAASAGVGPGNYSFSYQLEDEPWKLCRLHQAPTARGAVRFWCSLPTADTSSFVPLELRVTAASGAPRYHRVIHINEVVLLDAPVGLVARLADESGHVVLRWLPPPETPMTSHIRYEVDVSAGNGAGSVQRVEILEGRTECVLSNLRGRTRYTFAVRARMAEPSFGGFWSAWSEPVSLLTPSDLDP
The experiment in a line: Radioligand competitive binding assay (125I-EPO). As to conditions: Table 6; competition with 125I-EPO, 4° C. overnight. The method, then:
An alternative radioligand competition binding assay can also be used to measure IC50 values of peptides in this invention. This assay measures binding of ^125I-EPO to EPOr. The assay is preferably performed according to the following exemplary protocol:
One 50 μg vial of lyophilized recombinant EPOr extracellular domain fused to the Fc portion of human IgG1 is reconstituted in 1 mL of assay buffer. […] Tubes are capped and mixed gently at 4° C. overnight on a LabQuake rotating shaker.
The next day, 50 μL of a 50% slurry of Protein-G Sepharose is added to each tube. Tubes are then incubated for 2 hours at 4° C., mixing gently. The tubes are then centrifuged for 15 min at 4000 RPM (3297×G) to pellet the protein-G sepharose. The supernatants are carefully removed and discarded. After washing 3 times with 1 mL of 4° C. assay buffer, the pellets are counted in a Wallac Wizard gamma counter. Results are then analyzed and the dilution required to reach 50% of the maximum binding value is calculated.
The next day, bound ^125I-EPO is quantitated as described above. The results are analyzed and the IC50 value calculated using Graphpad Prism version 4.0, from GraphPad Software, Inc. (San Diego, Calif.). The assay is repeated two or more times for each peptide tested, for a total of 3 or more replicate IC50 determinations. See Table 6 for IC50 values of Peptide I.

In the case of “peptide dimer of monomers (AcG)GLYACHMGPIT(1-nal)VCQPLR(MeG)K (SEQ ID NO: 2) (Ac-GGLYACHMGPIT[1Nal]VCQPLR[Sar]K; disulfide 6-15 (inferred); not fully specified (residue 1); printed as (AcG)GLYACHMGPIT(1-nal)VCQPLR(MeG)K; also: homodimer, dimer linkage not given here) [Peptide I]”, the half-maximal effective concentration (EC50) in assay [1] worked out at 0.195 nM. Also, the IC50 in assay [2] came out at 0.111 nM.
